IC50 data for one compound are collected here from patent US5705492A, “3'-O-aminoacyl ARA uridines, method of making, and antiviral activity” (Hoffmann-La Roche Inc., priority 1995, dated 1998).

The target in test [1] is HSV-1 thymidine kinase (Human herpesvirus 1, UniProt P0DTH5). Nature of the test: inhibition of HSV-1 thymidine kinase. The class given is biochemical. As to conditions: 3H-thymidine phosphorylation, 37° C., 30 minutes, pH 8; read-out: IC50 against HSV-1 thymidine kinase. As to the method:
(§1) In this test procedure, the assay mixture contains 50 mmol Tris HCl, pH 8, 5 mmol magnesium chloride, 5 mmol ATP, 0.3 μmol ^3 H-thymidine (50 Ci/mmol), suitably diluted enzyme preparation and various concentrations of test compounds in a total volume of 100 μl. Assays are incubated at 37° C. for 30 minutes and the reaction is terminated by immersion in a boiling water bath for 2 minutes. 85 μl aliquots from each assay are then dried on to DEAE-cellulose paper discs and the unphosphorylated ^3 H-thymidine is removed by washing in 4 mmol ammonium formate. The radioactivity remaining bound to the discs is then measured by scintillation spectrophotometry. The degree of inhibition at each concentration of test compound is expressed as a percentage of the control reaction (100%) after subtracting a measured blank value which represents the amount of radioactivity bound to the disc from a reaction containing heat-inactivated enzymes. The IC50 value, namely the concentration of test compound which inhibits enzyme activity by 50%, is then calculated.

For test [2], the target named is HSV-2 thymidine kinase (Human herpesvirus 2, UniProt P04407). Nature of the test: inhibition of HSV-2 thymidine kinase. Type of test: biochemical. The note with it: 3H-thymidine phosphorylation, 37° C., 30 minutes, pH 8; read-out: IC50 against HSV-2 thymidine kinase. As to the method:
as §1

Structures can show the parent of a compound that is named as a salt.

Chain of HSV-2 thymidine kinase (P04407 whole entry): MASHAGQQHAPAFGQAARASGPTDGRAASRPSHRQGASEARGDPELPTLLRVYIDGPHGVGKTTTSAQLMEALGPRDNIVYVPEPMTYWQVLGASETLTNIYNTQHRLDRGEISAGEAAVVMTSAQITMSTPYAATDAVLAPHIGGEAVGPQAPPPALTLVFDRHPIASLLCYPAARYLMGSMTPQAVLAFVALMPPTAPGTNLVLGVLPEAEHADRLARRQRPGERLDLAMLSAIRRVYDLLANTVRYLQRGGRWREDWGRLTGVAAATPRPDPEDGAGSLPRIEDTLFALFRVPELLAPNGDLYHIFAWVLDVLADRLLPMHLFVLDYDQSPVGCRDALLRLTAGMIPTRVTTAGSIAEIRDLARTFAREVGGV
Chain of HSV-1 thymidine kinase (P0DTH5 whole entry): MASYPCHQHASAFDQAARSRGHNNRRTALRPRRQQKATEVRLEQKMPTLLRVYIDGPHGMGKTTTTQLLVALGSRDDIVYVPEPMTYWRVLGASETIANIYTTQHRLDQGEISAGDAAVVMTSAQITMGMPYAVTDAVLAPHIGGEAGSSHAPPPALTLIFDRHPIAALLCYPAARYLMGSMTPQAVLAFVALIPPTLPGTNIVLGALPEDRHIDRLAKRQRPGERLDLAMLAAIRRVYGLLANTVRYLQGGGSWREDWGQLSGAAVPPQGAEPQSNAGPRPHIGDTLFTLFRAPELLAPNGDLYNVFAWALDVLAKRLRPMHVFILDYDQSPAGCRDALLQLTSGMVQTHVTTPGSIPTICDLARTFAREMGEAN

In the case of `CCc1cn([C@@H]2O[C@H](CNC(=O)[C@H](C)Oc3cc(OC)c(Cl)cc3Cl)[C@@H](OC(=O)[C@@H](N)C(C)C)[C@@H]2F)c(=O)[nH]c1=O` [Example 1, 1-[5-[2(S)-(2,4-dichloro-5-methoxyphenoxy)propionamido]-1,5-dideoxy-2-fluoro-3-O-L-valyl-β-D-arabinofuranosyl]-5-ethyluracil hydrochloride], the IC50 – broadly, the concentration that gives 50% inhibition – in test [1] was found to be 18 nM; in test [2], 1.1 nM.
